Results published in patent US8048621B2, “Biological markers predictive of anti-cancer response to insulin-like growth factor-1 receptor kinase inhibitors” (OSI Pharmaceuticals, LLC, priority 2007, dated 2011).

Columns and labels:
Format in all cases: cell-based, human
H358 cells = experiment: Cell-Titer Glo cell viability / growth inhibition; details: H358 NSCLC cell line
Protocol: (§1) The NSCLC lines with IGF-1R, H292, H358, H322, H441, A549, Calu6, H460, H1703 and SW1573 were cultured in the appropriate ATCC recommended supplemented media. Cell extracts were prepared by detergent lysis ((50 mM Tris-HCl, pH8, 150 mM NaCl, 1% NP-40, 0.5% NaDeoxycholate, 0.1% SDS) containing protease and phosphatase inhibitors. The soluble protein concentration was determined by micro-BSA assay (Pierce, Rockford Ill.).
(§2) IGF-1R inhibitor Compound 66 (i.e. 3-(3-Azetidin-1-ylmethyl-cyclobutyl)-1-(2-phenyl-quinolin-7-yl)-imidazo[1,5-a]pyrazin-8-ylamine; see structure below) stock concentration was 10 mM in 100% DMSO (dimethyl sulfoxide). Serial dilutions (1:3 or 1:4) were used to establish the 50% inhibitory dose of IGF-1R inhibitor. Before dosing, inhibitor was diluted in 100% DMSO, and then added to the cells at desired final concentrations in duplicates. The final DMSO concentration was between 0.3-0.5%. Compound 66 was synthesized by the methods described in published International patent application number WO 2005/097800 A1.
(§3) For measuring cell viability, Cell-Titer Glo assay was used, which is available as a kit from Promega. The basis of the assay is a luminescent quantitation of ATP present in a cell culture plate well. In essence, the greater the number of viable cells in the well, the greater the level of ATP present. The assay utilizes a substrate that binds ATP to produce a luminescent signal, which can be read on a luminometer. Unless otherwise noted, the manufacturer's instructions were followed exactly. Briefly, on Day 1, cells were plated in 120 μl of 10% serum-containing growth media at a density of 4000 cells/well in a white polystyrene 96 well assay plate. On day 2, cells were treated with 15 μl of 10× concentration of the IGF-1R inhibitor (e.g. Compound 66, PQIP) or DMSO alone for a final well volume of […]. After 72 h incubation with the inhibitor, the cells were assayed. Results were calculated as a fraction of the DMSO controlled cells.

SW1573 cells = experiment: Cell-Titer Glo cell viability / growth inhibition; details: SW1573 NSCLC cell line
Protocol: as §1, §2, §3

H441 cells = experiment: Cell-Titer Glo cell viability / growth inhibition; details: H441 NSCLC cell line
Protocol: as §1, §2, §3

H292 cells = experiment: Cell-Titer Glo cell viability / growth inhibition; details: H292 NSCLC cell line
Protocol: as §1, §2, §3

H460 cells = experiment: Cell-Titer Glo cell viability / growth inhibition; details: H460 NSCLC cell line
Protocol: as §1, §2, §3

A549 cells = experiment: Cell-Titer Glo cell viability / growth inhibition; details: A549 NSCLC cell line
Protocol: as §1, §2, §3

[1] = test system: panel comprised of 28 tumor cell lines (colorectal, breast, pancreatic, NSCLC, head and neck); experiment: Cell-Titer Glo growth inhibition, tumor cell line panel
Protocol: The effect of 3 μM PQIP on cell growth for a panel of 26 tumor cell lines is shown. The EMT status for the cell lines is indicated, and those tumor cell lines which harbor a known activating mutation in PI3K are marked by a *. EMT status is defined here according to the transcriptional activity of CDH1, the gene encoding E-Cadherin, indicated by either the methylation status of the CDH1 promoter or the presence of CDH1 gene transcriptional repressor proteins (e.g. Snail, Zeb1). Methylation or high levels of transcriptional repressors is associated with silencing of CDH1, and is thus an indicator of a mesenchymal cell. Cell growth was measured using Cell Titer Glo (Promega), and measurements were taken 72 hours after dosing. Data are expressed as % of maximal tumor growth inhibition and are representative of three or more independent experiments. […]
For measuring cell viability, Cell-Titer Glo assay was used, which is available as a kit from Promega. The basis of the assay is a luminescent quantitation of ATP present in a cell culture plate well. […] The assay utilizes a substrate that binds ATP to produce a luminescent signal, which can be read on a luminometer. […] Results were calculated as a fraction of the DMSO controlled cells.

SMILES | sensitivity to Compound 66-mediated growth inhibition (H358 cells) | sensitivity to Compound 66-mediated growth inhibition (SW1573 cells) | sensitivity to Compound 66-mediated growth inhibition (H441 cells) | sensitivity to Compound 66-mediated growth inhibition (H292 cells) | sensitivity to Compound 66-mediated growth inhibition (H460 cells) | sensitivity to Compound 66-mediated growth inhibition (A549 cells) | inhibition at 3 µM ([1]; Homo sapiens, 3 μM PQIP, any mesenchymal tumor cell line in the panel) [%] | dose dependence of growth inhibition ([1]; varying concentrations of PQIP, all cell lines (data not shown))
Nc1nccn2c1c(-c1ccc3ccc(-c4ccccc4)nc3c1)nc2[C@H]1C[C@@H](CN2CCC2)C1 [Compound 66, 3-(3-Azetidin-1-ylmethyl-cyclobutyl)-1-(2-phenyl-quinolin-7-yl)-imidazo[1,5-a]pyrazin-8-ylamine] | sensitive | relatively insensitive | sensitive | sensitive | relatively insensitive | intermediate sensitivity |  | 
CN1CCN([C@H]2C[C@@H](c3nc(-c4ccc5ccc(-c6ccccc6)nc5c4)c4c(N)nccn43)C2)CC1 [PQIP, cis-3-[3-(4-Methyl-piperazin-1-yl)-cyclobutyl]1-(2-phenyl-quinolin-7-yl)-imidazo[1,5-a]pyrazin-8-ylamine] |  |  |  |  |  |  | ≤ 50 | dose-dependent
